We go through nine compounds from article PMC7144554, “2-(Arylamino)-6-(trifluoromethyl)nicotinic Acid Derivatives: New HIV-1 RT Dual Inhibitors Active on Viral Replication” (Molecules, 2020).

Bounds are passed on as bounds.

The target of series [1] is T1, HIV-1 RT-associated RNase H activity (wt RT) (Human immunodeficiency virus type 1 group M subtype B, UniProt P04585).
T1 construct: RT is a heterodimeric (p66/p51) multifunctional enzyme; made in house; host or cells: Escherichia coli strain M15
Description: HIV-1 DNA polymerase-independent RNase H activity, wt RT. Type of series: biochemical. Particulars: RNase H IC50, wt RT. The protocol: p6HRT-prot vector was kindly provided by Dr. Stuart Le Grice Laboratory. Heterodimeric RT was expressed essentially as described. Briefly, Escherichia coli strain M15 containing the p6HRT-prot vector were grown up to an OD600 of 0.7 and induced with isopropyl β-D-1-thiogalactopyranoside (IPTG) 1.7 mM for 4 h. Cell pellets were resuspended in Lysis buffer (50 mM sodium phosphate pH 7.8, 0.5 mg/mL lysozyme), incubated on ice for 20 min, added 0.3 M final NaCl, sonicated and centrifuged at 30,000× g for 1 h. The supernatant was loaded into a Ni^2+-sepharose column pre-equilibrated with loading buffer (50 mM sodium phosphate pH 7.8, 0.3 M NaCl, 10% glycerol, 10 mM imidazole) and washed thoroughly with wash buffer (50 mM sodium phosphate pH 6.0, 0.3 M NaCl, 10% glycerol, 80 mM imidazole). RT was gradient-eluted with elute buffer (wash buffer with 0.5 M imidazole). Fractions were collected, protein purity was checked by SDS-PAGE and found to be higher than 90%. RT containing fractions were pooled and diluted 1:1 with dilute buffer (50 mM sodium phosphate pH 7.0, 10% glycerol) then loaded into a Hi-trap Heparine HP GE (Healthcare Lifescience) pre-equilibrated with 10-column volume of loading buffer 2 (50 mM sodium phosphate pH 7.0, 10% glycerol, 150 mM NaCl). Column was then washed with loading buffer 2 and RT was gradient-eluted with elute buffer 2 (50 mM sodium phosphate pH 7.0, 10% glycerol, 150 mM NaCl). Fractions were collected, protein was dialyzed and stored in buffer containing 50 mM Tris HCl pH 7.0, 25 mM NaCl, 1 mM EDTA, 50% glycerol. Catalytic activities and protein concentration were determined. Enzyme-containing fractions were pooled and aliquots were stored at −80 °C.
The RT-associated RNase H activity of wt and mutated HIV RTs was measured as described, in 100 µL reaction volume containing 50 mM Tris HCl pH 7.8, 6 mM MgCl2, 1 mM dithiothreitol (DTT), 80 mM KCl, hybrid RNA/DNA (5’-[…]-3’-Fluorescein, 5’-[…]-3’-Dabcyl), and different amounts of enzymes according to a linear range of dose-response curve—20 ng of wt RT; 50 ng K103N RT; 100 ng V108A RT; 4 ng Y181C RT; 100 ng Q475A RT; 100 ng A502F RT. The reaction mixture was incubated for 1 h at 37 °C, the reaction was stopped by addition of EDTA and products were measured with a Victor 3 (Perkin) at 490/528 nm.

In a further series the test system is HIV-1 IIIB strain. Description: Antiviral assay, HIV-1 replication in TZMbl cells (luciferase). Particulars: TZMbl cells; for EC50: Human immunodeficiency virus 1, TZM-bl, read-out: HIV-1 EC50 TZMbl Cells. Type of series: cell-based.
The nature of series [2]: Cytotoxicity in TZMbl cells. Type of series: cell-based. Particulars: human.
The nature of series [3]: Cell viability in CEM cells (MTT). Format: cell-based. Particulars: human, MTT, 5 days. The protocol: (§1) Drug-mediated inhibition of virus-induced cytotoxicity was assayed in TZM-BL cells. Triplicate wells of 96-well plates containing 1 × 10^4 TZMbl cells were infected with HIV-1 IIIB strain at a multiplicity of infection of 0.1. Serial dilutions of drugs were added immediately after infection. Luciferase activity was measured as reported. Two days after infection, the culture medium was removed from each well and 100 µl of Bright Glo reagent (Promega, Luis Obispo, CA) was added to the cells for measurement of luminescence using a Victor 2 luminometer (Perkin). The 50% effective concentration (EC50) was defined as the concentration that caused a 50% reduction of luciferase activity (relative light units) compared to virus control wells. Cell viability in CEM cells was quantified 5 days after infection with the MTT-dye reduction method.

Another series relates to CEM cells. Description: Cell viability in CEM cells (MTT). Format: cell-based. Particulars: highest concentration tested. The protocol:
as §1

Description for HIV-1 IIIB strain: Drug-mediated inhibition of virus-induced cytotoxicity was assayed in TZM-BL cells. […] Serial dilutions of drugs were added immediately after infection. Luciferase activity was measured as reported [67]. Two days after infection, the culture medium was removed from each well and 100 µl of Bright Glo reagent (Promega, Luis Obispo, CA) was added to the cells for measurement of luminescence using a Victor 2 luminometer (Perkin). […] Cell viability in CEM cells was quantified 5 days after infection with the MTT-dye reduction method.

The term IC50 denotes the concentration at which inhibition is half-maximal. By EC50 is commonly meant the concentration giving half of the maximal effect. Usually CC50 stands for the concentration at which the toxic effect on the cells reaches its halfway point. Low values mean harm at low concentration, high ones better tolerance by the cells. Compound `Cc1ccc(Cl)cc1Nc1nc(C(F)(F)F)ccc1C(=O)Oc1ccc(Cl)cc1` [Compound 13] returned an IC50 in series [1] of 9.3 ± 2.5 µM. Moreover, the EC50 in the series with HIV-1 IIIB strain (HIV-1 IIIB) was found to be 10 µM. Besides, the “SI (selectivity index)” value in the series with HIV-1 IIIB strain is given as 3.6. The same compound came in with a CC50 in series [2] of 36 ± 1 µM. Also, the CC50 at 5 days in series [3] was above 50 µM. Also, in the series on CEM cells, the “percentage of cells viability in presence of the highest concentration of inhibitor tested, CEM cells” value (shortened to “percentage … of inhibitor tested, CEM cells”) came to 70%.

In general, melting point refers to the temperature, or range, at which the solid turns liquid. `Cc1ccc(Cl)cc1Nc1nc(C(F)(F)F)ccc1C(=O)Oc1ccccc1O` [Compound 16, 2-Hydroxyphenyl 2-((5-chloro-2-methylphenyl)amino)-6-(trifluoromethyl)nicotinate] showed a melting point of 179 to 180 °C. Also, in series [1], inhibition was half-maximal at 16.2 ± 6.6 µM (IC50). For the same compound, the EC50 with HIV-1 IIIB strain (HIV-1 IIIB) was above 10 µM. Further, in series [2], half-maximal cytotoxicity (CC50) was put at 12.2 ± 2.1 µM. In addition, the CC50 at 5 days in series [3] is above 12.5 µM. Moreover, the “percentage … of inhibitor tested, CEM cells” value in the series on CEM cells is reported as 100%.

For `CSc1ccc(OC(=O)c2ccc(C(F)(F)F)nc2Nc2cc(Cl)ccc2C)cc1` [Compound 24, 4-(Methylthio)phenyl 2-((5-chloro-2-methylphenyl)amino)-6-(trifluoromethyl)nicotinate], the melting point was 125 to 127 °C. Also, the IC50 in series [1] was determined as 9.6 ± 0.8 µM. Moreover, the half-maximal effective concentration (EC50) with HIV-1 IIIB strain (HIV-1 IIIB) was above 10 µM. For the same compound, the midpoint of cytotoxicity in series [2], the CC50, lay at 50 µM. In addition, the CC50 at 5 days in series [3] was above 50 µM. In the series with CEM cells, the “percentage … of inhibitor tested, CEM cells” value is recorded as 100%.

In turn, `Cc1ccc(Cl)cc1Nc1nc(C(F)(F)F)ccc1C(=O)NO` [Compound 25, 2-((5-Chloro-2-methylphenyl)amino)-N-hydroxy-6-(trifluoromethyl)nicotinamide] registered a melting point of 154 to 155 °C. This compound also displayed an IC50 in series [1] of 0.77 ± 0.06 µM. Moreover, in the series with HIV-1 IIIB strain (HIV-1 IIIB), the EC50 was above 10 µM and the “HIV-1 EC50 TZMbl Cells” value was “inactive”. The compound also gave a CC50 in series [2] of 14 ± 2.8 µM. The same compound returned a CC50 at 5 days in series [3] of 35 µM.

Compound `Cc1ccc(Cl)cc1Nc1nc(C(F)(F)F)ccc1C(=O)NCc1ccc(Cl)cc1` [Compound 40, N-(4-chlorobenzyl)-2-((5-chloro-2-methylphenyl)amino)-6-(trifluoromethyl)nicotinamide] showed a melting point of 130 to 131 °C. This compound had an IC50 in series [1] of 6.4 ± 0.5 µM. Besides, the EC50 in the series with HIV-1 IIIB strain (HIV-1 IIIB) was above 4.7 µM. Also, the CC50 in series [2] worked out at 4.7 ± 0.4 µM. In series [3], the CC50 at 5 days amounted to 7.75 µM.

Compound `Cc1ccc(Cl)cc1Nc1nc(C(F)(F)F)ccc1C(=O)NCc1ccc(C(F)(F)F)cc1` [Compound 42, 2-((5-Chloro-2-methylphenyl)amino)-6-(trifluoromethyl)-N-(4-(trifluoromethyl)benzyl)nicotinamide] had a melting point of 170 to 171 °C. This compound yielded an IC50 in series [1] of 21.9 ± 0.2 µM. In addition, the EC50 in the series with HIV-1 IIIB strain (HIV-1 IIIB) was above 3.6 µM. Further, the CC50 in series [2] stood at 3.6 ± 1.2 µM. Further, the CC50 at 5 days in series [3] is 5 µM.

As to `Cc1ccc(Cl)cc1Nc1nc(C(F)(F)F)ccc1C(=O)NCc1ccc(Cl)cc1Cl` [Compound 45, 2-((5-Chloro-2-methylphenyl)amino)-N-(2,4-dichlorobenzyl)-6-(trifluoromethyl)nicotinamide], the melting point lay within 153 to 155 °C. The compound further had an IC50 in series [1] of 19.3 ± 0.6 µM. Besides, the EC50 in the series with HIV-1 IIIB strain (HIV-1 IIIB) was above 10 µM. The same compound displayed a CC50 in series [2] of 5 ± 0.6 µM. In series [3], the CC50 at 5 days stood at 9.15 µM.

As to `Cc1ccc(Cl)cc1Nc1nc(C(F)(F)F)ccc1C(=O)NCc1ccc(Cl)c(Cl)c1` [Compound 46, 2-((5-Chloro-2-methylphenyl)amino)-N-(3,4-dichlorobenzyl)-6-(trifluoromethyl)nicotinamide], the melting point lay in the range of 179 to 180 °C. Besides, half-maximal inhibition in series [1] (IC50) required 25.6 ± 3.4 µM. Moreover, in the series on HIV-1 IIIB strain (HIV-1 IIIB), the EC50 was above 6.3 µM. Besides, half-maximal cytotoxicity in series [2] (CC50) was put at 6.3 ± 1.3 µM. For the same compound, half-maximal cytotoxicity in series [3] (CC50 at 5 days) was put at 10.6 µM.

`COc1cc(CNC(=O)c2ccc(C(F)(F)F)nc2Nc2cc(Cl)ccc2C)ccc1O` [Compound 47, 2-((5-Chloro-2-methylphenyl)amino)-N-(4-hydroxy-3-methoxybenzyl)-6-(trifluoromethyl)nicotinamide]: the melting point lay within 142 to 143 °C. The compound further showed an IC50 in series [1] of 18.2 ± 1.7 µM. Further, the EC50 in the series with HIV-1 IIIB strain (HIV-1 IIIB) is above 10 µM. Also, it took 15 ± 3 µM to reach half-maximal cytotoxicity in series [2] (CC50). The compound also showed a CC50 at 5 days in series [3] of 17.4 µM.
